Data from US6376497B1, “Antifungal azole derivatives having a fluorinated vinyl group and process for preparing same” (Korea Research Institute of Chemical Technology, priority 1999, dated 2002).

Legend:
Assay in all cases: In vitro antifungal activity, microbroth dilution MIC
Format in all cases: cell-based
[1] = tested on: Cryptococcus neoformans A. 34144; details: RPMI-1640, 35° C., no growth observed
Method in brief: (§1)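 Broth microdilution adapted from NCCLS M27, in RPMI-1640 with 0.165 M MOPS, pH 7.0. Yeast or mould inoculum at 2×10^3 CFU/ml was mixed 1:1 with DMSO-derived compound solutions (200 to 0.10 μg/ml before mixing) and incubated at 35 °C for 4 to 48 h. MIC was the concentration showing no growth.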

[2] = tested on: Aspergillus furnigatus B. 19119; details: RPMI-1640, 35° C., no growth observed
Method in brief: as §1

[3] = tested on: Torulopsis glabrata B. 16205; details: RPMI-1640, 35° C., 4 to 48 hours, no growth observed
Method in brief: as §1

[4] = tested on: Trichophyton mentagrophytes A. 9129; details: RPMI-1640, 35° C., no growth observed
Method in brief: as §1

[5] = tested on: Cryptococcus neoformans IFM. 40092; details: RPMI-1640, 35° C., no growth observed
Method in brief: as §1

[6] = tested on: Candida tropicalis A. 13803; details: RPMI-1640, 35° C., 4 to 48 hours, no growth observed
Method in brief: as §1

[7] = tested on: Candida pseudotropicalis K. 11658; details: RPMI-1640, 35° C., 4 to 48 hours, no growth observed
Method in brief: as §1

[8] = tested on: Cryptococcus neoformans B. 42419; details: RPMI-1640, 35° C., 4 to 48 hours, no growth observed
Method in brief: as §1

Candida albicans C1-2 = details: RPMI-1640, 35° C., 4 to 48 hours, no growth observed
Method in brief: as §1

[9] = tested on: Candida albicans IFO. 1385; details: RPMI-1640, 35° C., 4 to 48 hours, no growth observed
Method in brief: as §1

[10] = tested on: Candida albicans A. 10231; details: RPMI-1640, 35° C., 4 to 48 hours, no growth observed
Method in brief: as §1

[11] = tested on: Trichophyton mentagrophytes B. 32663; details: RPMI-1640, 35° C., no growth observed
Method in brief: as §1

[12] = tested on: Aspergillus niger A. 16404; details: RPMI-1640, 35° C., no growth observed
Method in brief: as §1

[13] = tested on: Candida parapsitosis A. 7330; details: RPMI-1640, 35° C., 4 to 48 hours, no growth observed
Method in brief: as §1

Candida krusei K. 11655 = details: RPMI-1640, 35° C., 4 to 48 hours, no growth observed
Method in brief: as §1

| Minimal inhibitory concentration(MIC), Cry. neoformans A. 34144 ([1]; 4 to 48 hours) | Minimal inhibitory concentration(MIC), A furnigatus B. 19119 ([2]; 4 to 48 hours) | Minimal inhibitory concentration(MIC), T. glabrata B. 16205 [3] | Minimal inhibitory concentration(MIC), T. mentagrophytes A. 9129 ([4]; 4 to 48 hours) | Minimal inhibitory concentration(MIC), Cry. neoformans IFM. 40092 ([5]; 4 to 48 hours) | Minimal inhibitory concentration(MIC), C. tropicalis A. 13803 [6] | Minimal inhibitory concentration(MIC), C. pseudotropicalis K. 11658 [7] | Minimal inhibitory concentration(MIC), Cry. neoformans B. 42419 [8] | Minimal inhibitory concentration(MIC), C. albicans C1-2 (Candida albicans C1-2) | Minimal inhibitory concentration(MIC), C. albicans IFO. 1385 [9] | Minimal inhibitory concentration(MIC), C. albicans A. 10231 [10] | Minimal inhibitory concentration(MIC), T. mentagrophytes B. 32663 ([11]; 4 to 48 hours) | Minimal inhibitory concentration(MIC), A. niger A. 16404 ([12]; 4 to 48 hours) | Minimal inhibitory concentration(MIC), C. parapsitosis A. 7330 [13] | Minimal inhibitory concentration(MIC), C. krusei K. 11655 (Candida krusei K. 11655) | SMILES | other results |
| --- | --- | --- | --- | --- | --- | --- | --- | --- | --- | --- | --- | --- | --- | --- | --- | --- |
| 0.39 µg/mL | >100 µg/mL | >100 µg/mL | 6.25 µg/mL | 0.20 µg/mL | >100 µg/mL | 1.56 µg/mL | 0.78 µg/mL | >100 µg/mL | 1.56 µg/mL | >100 µg/mL | 1.56 µg/mL | >100 µg/mL | 3.13 µg/mL | 1.56 µg/mL | FC(=C(c1ccc(Cl)cc1)C(F)(F)F)N1CCN(c2ccc(OCC3COC(Cn4ccnc4)(c4ccc(Cl)cc4Cl)O3)cc2)CC1 (mixture of isomers) [Ex. 134] |  |
| 1.56 µg/mL | >100 µg/mL | >100 µg/mL | 100 µg/mL | 0.78 µg/mL | >100 µg/mL | >100 µg/mL | 1.56 µg/mL | 100 µg/mL | 6.25 µg/mL | 100 µg/mL | 100 µg/mL | 100 µg/mL | >100 µg/mL | >100 µg/mL | FC(=Cc1ccccc1)Oc1ccc(OCC2COC(Cn3ccnc3)(c3ccc(Cl)cc3Cl)O2)cc1 (mixture of isomers) [Ex. 88] |  |
|  |  | 50.0 µg/mL |  |  | >100 µg/mL | 0.39 µg/mL | 0.78 µg/mL | >100 µg/mL | 0.78 µg/mL | >100 µg/mL |  |  | 0.78 µg/mL | 0.39 µg/mL | FC(=C(c1cccc(F)c1)C(F)(F)F)N1CCN(c2ccc(OCC3COC(Cn4ccnc4)(c4ccc(F)cc4F)O3)cc2)CC1 (mixture of isomers) [Ex. 147] | Minimal inhibitory concentration(MIC), Cry. neoformans A. 34144 [1]: 0.78 µg/mL; Minimal inhibitory concentration(MIC), A furnigatus B. 19119 [2]: 12.5 µg/mL; Minimal inhibitory concentration(MIC), T. mentagrophytes A. 9129 [4]: 3.13 µg/mL; Minimal inhibitory concentration(MIC), Cry. neoformans IFM. 40092 [5]: ≦0.10 μg/ml; Minimal inhibitory concentration(MIC), T. mentagrophytes B. 32663 [11]: ≦0.10 μg/ml; Minimal inhibitory concentration(MIC), A. niger A. 16404 [12]: 100 µg/mL |
